Data taken from patent US12234256B2, “Molecular degraders of extracellular proteins” (priority 2021, dated 2025).

How the values were obtained:
α-DNP antibody [1] = assay: Ternary complex formation between hepatocytes and α-DNP antibody; format: cell-based; details: FIG. 6B; competitive binders of ASGPR or α-DNP antibody
α-DNP antibody [2] = assay: In vivo serum levels of α-DNP antibody, ELISA; details: FIG. 8D; single variable dose; mice
Experimental: In vivo experiments were performed under Yale University IACUC supervision following protocol entitled “pre-clinical evaluation of small molecule immunomodulators” (Protocol number 2017-11445). Experiments were performed in male nude mice purchased from Jackson Laboratory (NU/J, Stock No. 002019). Compounds were administered i.p. in a volume of 100 μL PBS. Approximately 25 μL of blood was collected at each time point by saphenous bleed. Antibody was administered as 40 μg in 100 μL i.p. Compounds were administered daily at the specified dose throughout the course of experiments. For data analysis, antibody levels were normalized to the recorded concentration of antibody observed in each mouse 24 hours after the i.p. administration.
ELISA analysis of serum samples was performed using MaxiSorp 96 well plates (Thermo, 44-2404-21). Plates were coated with 50 μL of BSA-DNP (Invitrogen, A23018) at 100 ug/mL in PBS and incubated at 4° C. overnight. Coating solution was then removed, and the plates were blocked with 2% BSA in PBS for 2 hours at room temperature, followed by washing twice with PBST (0.2% Tween). Serum samples were diluted in 2% BSA in PBS. […] The plates were then treated with TMB (Thermo 34028) followed by 2 M H2SO4 and analyzed for OD at 450 nm on a plate reader (BioTek Synergy 2). Sample concentrations were determined against a standard curve.

CC(=O)N[C@H]1[C@H](OCCOCCOCCNC(=O)CCOCC(COCCC(=O)NCCOCCOCCO[C@@H]2O[C@H](CO)[C@H](O)[C@H](O)[C@H]2NC(C)=O)(COCCC(=O)NCCOCCOCCO[C@@H]2O[C@H](CO)[C@H](O)[C@H](O)[C@H]2NC(C)=O)NC(=O)CNC(=O)COCCOCCOCCNc2ccc([N+](=O)[O-])cc2[N+](=O)[O-])O[C@H](CO)[C@H](O)[C@@H]1O [D-MoDE-A]
D-MoDE-A-mediated ternary complex formation in presence of competitive binders (α-DNP antibody [1]): inhibited by competitive binders of either ASGPR or α-DNP antibody | serum levels of α-DNP antibody (α-DNP antibody [2]): decrease in serum levels of α-DNP antibody
